In the oligonucleotide strings, read from the 5' end, every base follows the letter of its sugar. An asterisk marks phosphorothioate; unmarked linkages are phosphodiester. Other units and linkages are bracketed, terminal groups are in braces. A string of capitals states the bases alone. e = 2'-O-(2-methoxyethyl) (MOE); [5mC] = 5-methylcytosine; d = 2'-deoxy (DNA)
Legend:
preadipocytes = assay: Caspase assay in preadipocytes; type: cell-based, human; details: untreated control set equal to 1.0
Description: The effect of oligomeric compounds of the present invention targeting miRNAs was examined in preadipocytes (Zen-Bio, Inc., Research Triangle Park, N.C.) using the fluorometric caspase assay previously described in Example 11.

adipocytes = assay: Triglyceride accumulation assay in adipocytes; type: cell-based, human
leptin = assay: Leptin secretion by adipocytes (ELISA); type: cell-based, human; details: adipocytes, 250 nM oligomeric compound, day nine post-transfection, relative to control (1.0); Table 16
Description: Leptin secretion into the medium in which adipocytes are cultured is measured by protein ELISA. On day nine post-transfection, 96-well plates are coated with a monoclonal antibody to human leptin (R&D Systems, Minneapolis, Minn.) and left at 4° C. overnight. The plates are blocked with bovine serum albumin (BSA), and a dilution of the treated adipoctye medium is incubated in the plate at room temperature for approximately 2 hours. After washing to remove unbound components, a second monoclonal antibody to human leptin (conjugated with biotin) is added. The plate is then incubated with strepavidin-conjugated horse radish peroxidase (HRP) and enzyme levels are determined by incubation with 3, 3′,5,5′-tetramethlybenzidine, which turns blue when cleaved by HRP. The OD450 is read for each well, where the dye absorbance is proportional to the leptin concentration in the cell lysate.
Leptin is also a marker for differentiated adipocytes. In the adipocyte assay, leptin secretion into the media above the differentiated adipocytes was measured by protein ELISA. Cell growth, transfection and differentiation procedures were carried out as described for the Triglyceride accumulation assay (see below). On day nine post-transfection, 96-well plates were coated with a monoclonal antibody to human leptin (R&D Systems, Minneapolis, Minn.) and left at 4° C. overnight. The plates were blocked with bovine serum albumin (BSA), and a dilution of the media was incubated in the plate at RT for 2 hours. After washing to remove unbound components, a second monoclonal antibody to human leptin (conjugated with biotin) was added. The plate was then incubated with strepavidin-conjugated horseradish peroxidase (HRP) and enzyme levels are determined by incubation with 3, 3′, 5,5′-Tetramethlybenzidine, which turns blue when cleaved by HRP. The OD450 was read for each well, where the dye absorbance is proportional to the leptin concentration in the cell lysate. Results are expressed as a percent±standard deviation relative to transfectant-only controls.

aP2 = aP2 mRNA expression in adipocytes (real-time PCR); type: cell-based, human; details: for AP2 (mRNA expression): adipocytes, 250 nM oligomeric compound, day nine post-transfection, relative to control (1.0), Table 16
HSL = HSL mRNA expression in adipocytes (real-time PCR); type: cell-based, human; details: for HSL (mRNA expression): adipocytes, 250 nM oligomeric compound, day nine post-transfection, relative to control (1.0), Table 16
Glut4 = Glut4 mRNA expression in adipocytes (real-time PCR); type: cell-based, human; details: for Glut4 (mRNA expression): adipocytes, 250 nM oligomeric compound, day nine post-transfection, relative to control (1.0), Table 16
PPARγ = PPARγ mRNA expression in adipocytes (real-time PCR); type: cell-based, human; details: for PPAR gamma (mRNA expression): adipocytes, 250 nM oligomeric compound, day nine post-transfection, relative to control (1.0), Table 16
HuVECs = assay: Endothelial tube formation assay in HuVECs; details: 75 nM oligomeric compound
[1] = system: BJ, B16-F10, T47D, T47Dp53 and HeLa cells; assay: Cell cycle assay (propidium iodide flow cytometry), cell line panel; type: cell-based; details: 150 nM oligomeric compound, 4.5 μg/ml LIPOFECTIN, after 72 hours, propidium iodide flow cytometry
T47D cells = assay: Caspase-3 activity assay (apoptosis) in T47D cells; details: T47D cells, 48 hours; for Fold Increase over UTC (caspase-3 activity, apoptosis): 200 nM oligomeric compound
mir-21 miRNA = assay: pGL3-mir-21 sensor luciferase assay in HeLa cells; type: cell-based, human; details: Table 50, pGL3-mir-21 sensor-expressing HeLa cells, normalized to pRL-CMV
Description: In order to assess the ability of miRNAs to bind predicted miRNA binding sites and regulate the expression of the luciferase reporter, in some embodiments, expression systems based on the pGL3-Control (Promega Corp., Madison Wis.) reporter vector and comprising either a mir-15a, mir-21, or a mir-23b miRNA binding site were developed and used in transient transfections of HeLa cells to determine whether the endogenous mir-15a, mir-21, or mir-23b miRNAs, respectively, could repress luciferase reporter gene expression.
The pGL3-mir-21 sensor plasmid was created by cloning the sequence ([…]; SEQ ID NO: 335), representing a sequence complementary to the mir-21 miRNA, into the Xba site of the pGL3-Control plasmid, placing the potential miRNA-binding site in the 3′UTR of the luciferase reporter. This reporter plasmid was used to transfect HeLa cells and it was observed that the endogenous mir-21 miRNA was able to inhibit luciferase expression from the pGL3-mir-21 sensor plasmid. Thus, to further evaluate the ability of the mir-21 miRNA to bind this target site encoded by the pGL3-mir-21 sensor plasmid, and to assess the ability of oligomeric compounds to interfere with mir-21-mediated silencing, pGL3-mir-21 sensor-expressing HeLa cells were treated with varying concentrations (10 nM or 50 nM) of the following oligomeric compounds: ISIS Number 327917 (SEQ ID NO: 335), a phosphorothioate uniform 2′-MOE oligomeric compound; ISIS Number 338697 ([…]; herein incorporated as SEQ ID NO: 524), a uniform 2′-MOE oligomeric compound targeting the mir-21 pri-miRNA molecule; and ISIS Number 328415 (SEQ ID NO: 524), a 2′-MOE 5-10-5 gapmer oligomeric compound targeting the mir-21 pri-miRNA. The uniform 2′-MOE phosphorothioate oligomeric compound ISIS Number 327901 (SEQ ID NO: 319) targeting an unrelated miRNA (mir-143) was used as a negative control. The data are the average of three trials and are presented in Table 44 as percent untreated control (luciferase plasmid only, not treated with oligomeric compound) luciferase expression, normalized to pRL-CMV levels.
In one embodiment, the oligomeric compounds ISIS Number 327917 (SEQ ID NO: 335), the phosphorothioate uniform 2′-MOE targeting mature mir-21; ISIS Number 358768 (SEQ ID NO: 918), the uniform 2′-MOE targeting the mir-21 pri-miRNA which stimulated the largest increase in pri-miRNA expression levels by real time quantitative RT-PCR; and ISIS Number 345382 (SEQ ID NO: 335), the 5-10-7 phosphorothioate 2′-MOE gapmer targeting mature mir-21 were selected for dose response studies in HeLa cells using the luciferase reporter system described in Example 27. ISIS Number 342683 (SEQ ID NO: 790), representing the scrambled nucleotide sequence of an unrelated PTP1B antisense oligonucleotide, was used as a negative control. HeLa cells expressing the pGL3-mir-21 sensor plasmid (described in Example 27) were treated with 1.9, 5.5, 16.7, and 50 nM of these oligomeric compounds, to assess the ability of oligomeric compounds to interfere with endogenous mir-21-mediated silencing of the pGL3-mir-21 sensor plasmid. The data are presented in Table 50 as percent untreated control (luciferase plasmid only, not treated with oligomeric compound) luciferase expression, normalized to pRL-CMV levels.

mir-21 pri-miRNA = mir-21 pri-miRNA expression in HeLa cells (real-time RT-PCR); type: cell-based, human; details: HeLa cells, 100 nM, real-time RT-PCR
[2] = adipocytes, 250 nM oligomeric compound, relative to control (1.0), Table 16
[3] = differentiating adipocytes transfected with oligomeric compound

| Substance | Fold Increase over UTC (caspase activity) (preadipocytes) | TG (triglyceride accumulation) (adipocytes; [2]) | Leptin (secretion) (leptin) | AP2 (mRNA expression) (aP2) | HSL (mRNA expression) (HSL) | Glut4 (mRNA expression) (Glut4) | PPAR gamma (mRNA expression) (PPARγ) | % Activity Relative to UTC (tube formation) (HuVECs; Table 58) | also measured |
| --- | --- | --- | --- | --- | --- | --- | --- | --- | --- |
| 327930 (antisense eA*e[5mC]*eT*eA*eT*eA*e[5mC]*eA*eA*e[5mC]*e[5mC]*eT*e[5mC]*e[5mC]*eT*eA*e[5mC]*e[5mC]*eT*e[5mC]*eA) [compound 327930] | 1.4 fold over UTC | 0.97 | 0.95 | 0.86 | 0.89 | 1.01 | 0.98 | 88.9% | – |
| NNNNNNNNNNNNNNNNNNNN [ISIS 29848, reference compound] | 1.2 fold over UTC | – | – | – | – | – | – | – | TG (triglyceride accumulation) (adipocytes; [3]): 89 percentage of untreated control (UTC); AP2 mRNA (aP2; [3]): 89 percentage of untreated control (UTC); HSL mRNA (HSL; [3]): 84 percentage of untreated control (UTC); GLUT4 mRNA (Glut4; [3]): 96 percentage of untreated control (UTC); PPAR gamma mRNA (PPARγ; [3]): 100 percentage of untreated control (UTC); G1 (percentage of cells in phase of the cell cycle) [1]: 57.8%; G2/M (percentage of cells in phase of the cell cycle) [1]: 15.6%; S (percentage of cells in phase of the cell cycle) [1]: 26.5%; SubG1 (percentage of cells in phase of the cell cycle) [1]: 9.6%; aneuploid (percentage of cells) [1]: 12%; Fold Increase over UTC (caspase-3 activity, apoptosis) (T47D cells; experiment of Table 10): 3.0 fold; Fold Increase over UTC (caspase-3 activity, apoptosis) (T47D cells; experiment of Table 11): 3.2 fold; Fold Increase over UTC (caspase-3 activity, apoptosis) (T47D cells; experiment of Table 12): 3.5 fold; Fold Increase over UTC (caspase activity) (T47D cells; 200 nM, relative to untreated control): 3.5 |
| 327938 (antisense eA*eA*e[5mC]*eA*eA*eT*eA*e[5mC]*eA*eA*e[5mC]*eT*eT*eA*e[5mC]*eT*eA*e[5mC]*e[5mC]*eT*e[5mC]*eA) [compound 327938] | 1.0 fold over UTC | 1.05 | 1.35 | 0.86 | 0.85 | 0.80 | 0.90 | 96.3% | – |
| 327955 (antisense eG*e[5mC]*e[5mC]*e[5mC]*eT*eT*eT*e[5mC]*eA*eT*e[5mC]*eA*eT*eT*eG*e[5mC]*eA*e[5mC]*eT*eG) [compound 327955] | 4.3 fold over UTC | 0.81 | 1.22 | 0.74 | 0.82 | 0.45 | 0.92 | – | % Activity Relative to UTC (tube formation) (HuVECs; Table 59): 46.7% |
| 327942 (antisense e[5mC]*e[5mC]*eA*eT*e[5mC]*eT*eT*eT*eA*e[5mC]*e[5mC]*eA*eG*eA*e[5mC]*eA*eG*eT*eG*eT*eT) [compound 327942] | 1.0 fold over UTC | 0.85 | 2.03 | 0.82 | 0.79 | 0.66 | 0.87 | 74.1% | – |
| 327926 (antisense eA*e[5mC]*eT*eA*eT*eG*e[5mC]*eA*eA*e[5mC]*e[5mC]*eT*eA*e[5mC]*eT*eA*e[5mC]*e[5mC]*eT*e[5mC]*eT) [compound 327926] | 1.8 fold over UTC | 1.06 | 1.47 | 0.85 | 0.82 | 1.10 | 0.93 | 96.3% | – |
| 345382 (TCAACATCAGTCTGATAAGCTA; sugars from the 5' end e5 d10 e7, all phosphorothioate, methylation of C not given here) [compound 345382] | – | – | – | – | – | – | – | – | luciferase expression % UTC (mir-21 miRNA; 1.9 nM): 101 % UTC; luciferase expression % UTC (mir-21 miRNA; 5.5 nM): 135 % UTC; luciferase expression % UTC (mir-21 miRNA; 16.7 nM): 117 % UTC; luciferase expression % UTC (mir-21 miRNA; 50 nM): 95 % UTC; mir-21 pri-miRNA expression % UTC (mir-21 pri-miRNA): 119 % UTC |
